Source: patent US20220186240A1, “FLAVONE 7-O-METHYLTRANSFERASE GENE AND USE FOR SAME” (Suntory Holdings Limited, priority 2019, published 2022)

Key:
[1] = system: DN134067 (CcFn-7OMT, flavone 7-O-methyltransferase); experiment: Enzyme activity measurement with crude protein solution extract from E. coli expressing DN134067, HPLC of reaction solution; assay type: biochemical, oboushibana (Commelina communis var. hortensis); conditions: for Enzyme reaction synthesis product / peak detected in the enzyme reaction solution: compound as substrate; for Enzyme reaction synthesis product: 30° C., SAM, ND = no product peak; for peak detected in the enzyme reaction solution: HPLC
Excerpt: With DN134067 as a candidate protein having activity of transferring a methyl group to the hydroxyl group at position 7 of flavone C-glycoside, and using pET15b (Novagen), an E. coli expression vector containing the full-length DN134067 (pET15b-DN134067) was constructed according to the manufacturer's recommended protocol.
Plasmid pET15b-DN134067 was introduced into E. coli BL21 using One Shot BL21(DE3) (Invitrogen), according to the manufacturer's recommended protocol, to obtain E. coli transformants. The E. coli were cultured using an Overnight Express Autoinduction System 1 (Novagen), according to the manufacturer's recommended protocol. The E. coli transformants were cultured at 37° C. (approximately 4 hours) with 2 ml of prepared culture solution, to an OD600 value of 0.5. The E. coli solution was added as a preculturing solution to 50 ml of culture solution, and main culturing was carried out for two nights at 16° C.
The E. coli solution cultured for two nights was centrifuged (3000 rpm, 4° C., 15 minutes), and the collected cells were suspended in sonic buffer (composition: 40 mM KPB (pH7.5), 1 mM dithiothreitol, 50 μM amidinophenylmethanesulfonyl fluoride hydrochloride, […], 2 mM MgCl2, 1 μM S-adenosylmethionine (SAM)). A 5 ml portion of sonic buffer was added for each 1 g of E. coli. The suspended E. coli cells were crushed by ultrasonic treatment and then centrifuged (15,000 rpm, 4° C., 10 minutes), and the supernatant was recovered. The supernatant was used as a crude protein solution extract from E. coli expressing DN134067. An Avanti HP-26XP (rotor: JA-2) (Beckman Coulter) was used for the centrifugation.
After mixing 8 μl of 1 mM isovitexin (dissolved in 50% aqueous acetonitrile containing 0.1% TFA), 20 μl of 10 mM SAM, 20 μl of 10 mM MgCl2 and 10 μl of 1 M KPB (pH 7.5) and adjusting to 58 μl with water, the mixture was kept at 30° C. for 10 minutes, and then 2 μl of the crude protein solution extract from DN134067-expressing E. coli was added and enzyme reaction was carried out (30 minutes at 30° C.). Next, 100 μl of stop buffer (aqueous 90% acetonitrile solution containing 0.1% TFA) was added to stop the enzyme reaction, and the enzyme reaction solution was analyzed by high-performance liquid chromatography (Prominence by Shimadzu Corp.). Detection was at 330 nm using a Shimadzu PDA SPD-M20A as the detector. The column used was a Shim-Pack ODS 150 mm*4.6 mm (Shimadzu Corp.). Elution was performed using solution A (0.1% TFA aqueous solution) and solution B (aqueous 90% acetonitrile solution containing 0.1% TFA). The elution was with a 20-minute linear concentration gradient from a 9:1 mixture to a 8:2 mixture, a 15-minute linear concentration gradient from a 8:2 mixture to a 2:8 mixture and a 5-minute linear concentration gradient from a 2:8 mixture to a 0:10 mixture, followed by elution with a 0:10 mixture for 1 minute. The flow rate was 0.6 ml/min. As a control, the same experiment was carried out using a crude protein solution extract from E. coli in which pET15b vector without the insert had been introduced.
When enzyme reaction was conducted using an anthocyanin (delphinidin 3-glycoside, petunidin 3-glycoside or delphinidin 3,5-diglycoside) as the substrate, the enzyme reaction conditions were 30° C., 15 minutes, and an aqueous 90% acetonitrile solution containing 0.1% TFA and 0.24 N hydrochloric acid was used as the stop buffer. A Shimadzu PDA SPD-M20A detector was used for detection at 520 nm during analysis of the enzyme reaction solution by high-performance liquid chromatography (Prominence (Shimadzu Corp.)). The column used was a Shodex RSpak DE-413 L (Shodex). Elution was performed using solution A (0.1% TFA aqueous solution) and solution B (aqueous 90% acetonitrile solution containing 0.1% TFA). Elution was performed with a 15-minute linear concentration gradient from an 8:2 mixture to a 0:10 mixture, and subsequent elution for 5 minutes with a 0:10 mixture. […]

[2] = Simulation of flavone C-glycoside (isovitexin) copigment effect with anthocyanin, absorption spectra; assay type: physicochemical; conditions: for Absorption maximum of anthocyanin solution with addition of flavone C-glycoside (λmax): pH 4.5, anthocyanin 0.5 mM
Experimental: An anthocyanin and flavone C-glycoside were prepared to simulate the copigment effect of flavone C-glycoside on anthocyanin. The malvin (malvidin 3,5-diglycoside) and isovitexin (apigenin 6-C-glycoside) used for the experiment were purchased from Funakoshi Corp.
The flavone C-glycoside (isovitexin) was added to the anthocyanin (malvin) at 0, 2 and 4-equivalent molar concentrations in a buffering solution at pH 4.5, and the absorption spectra were measured. The anthocyanin concentration was 0.5 mM.
Addition of the flavone C-glycoside increased the absorbance of the anthocyanin solution, shifting the absorption maximum (λmax) toward the long wavelength end with increasing addition of flavone C-glycoside.

[3] = Simulation of flavone C-glycoside (isoorientin, swertisin) copigment effect with malvin, absorption spectra; assay type: physicochemical; conditions: for Absorption maximum of malvin solution with addition of flavone C-glycoside (λmax): flavone C-glycoside at 10-equivalent molar concentration, pH 5.0, malvin 0.5 mM
Experimental: An anthocyanin (malvin) and flavone C-glycoside were prepared to simulate the copigment effect of the flavone C-glycoside on malvin. The malvin (malvidin 3,5-diglycoside) and flavone C-glycosides (isoorientin, swertisin) used in this experiment were purchased from Nacalai Tesque, Inc.
Each flavone C-glycoside (isoorientin or swertisin) was added to the malvin at 10-equivalent molar concentration in a buffering solution at pH 5.0, and the absorption spectra were measured. The malvin concentration was 0.5 mM.
Addition of the flavone C-glycoside increased the absorbance of the malvin solution, shifting the absorption maximum (λmax) toward the long wavelength end. The absorption maximum was shifted further toward the long wavelength end with addition of swertisin than with isoorientin.

For `O=c1cc(-c2ccc(O)cc2)oc2cc(O)c([C@@H]3O[C@H](CO)[C@@H](O)[C@H](O)[C@H]3O)c(O)c12` [Isovitexin, apigenin 6-C-glycoside], the “Enzyme reaction synthesis product” value [1] was “Swertisin”, the “peak detected in the enzyme reaction solution” value (“peak detected” for short) [1] was “a peak for swertisin” and the “copigment effect with malvin” value ([2]; pH 4.5, malvin 0.5 mM) was “copigment effect of isovitexin is exhibited with malvin”.

For `O=c1cc(-c2ccc(O)c(O)c2)oc2cc(O)cc(O)c12` [Luteolin], the “peak detected” value [1] was “no peak was detected in the enzyme reaction solution other than for the substrate”.

For Delphinidin 3,5-diglycoside, the “peak detected” value [1] was “no peak was detected in the enzyme reaction solution other than for the substrate”.

In the case of Apigenin 4′-glycoside, the “peak detected” value [1] is reported as “no peak was detected in the enzyme reaction solution other than for the substrate”.

With `COc1cc2oc(-c3ccc(O)cc3)cc(=O)c2c(O)c1[C@@H]1O[C@H](CO)[C@@H](O)[C@H](O)[C@H]1O` [Swertisin, apigenin 7-methyl-6-C-glycoside] the “copigment effect with malvin” value ([3]; compared with isoorientin, 10 equivalents, pH 5.0) was “higher copigment effect with malvin” and the “Absorption maximum of malvin solution with addition of flavone C-glycoside (λmax)” value [3] was 579 nm.

With isovitexin 4′-glycoside [Saponarin] the “peak detected” value [1] was “no peak was detected in the enzyme reaction solution other than for the substrate”.

In the case of `O=c1cc(-c2ccc(O)c(O)c2)oc2cc(O)c([C@@H]3O[C@H](CO)[C@@H](O)[C@H](O)[C@H]3O)c(O)c12` [Isoorientin, luteolin 6-C-glycoside], the “Enzyme reaction synthesis product” value [1] is reported as “Swertiajaponin”, the “peak detected” value [1] is reported as “a peak was detected for swertiajaponin” and the “Absorption maximum of malvin solution with addition of flavone C-glycoside (λmax)” value [3] is reported as 575 nm.

In the case of `COc1cc(-c2[o+]c3cc(O)cc(O[C@@H]4O[C@H](CO)[C@@H](O)[C@H](O)[C@H]4O)c3cc2O[C@@H]2O[C@H](CO)[C@@H](O)[C@H](O)[C@H]2O)cc(OC)c1O` [Malvin, malvidin 3,5-diglycoside], the “Absorption maximum of malvin solution (λmax)” value ([3]; malvin alone, pH 5.0, 0.5 mM) is reported as 529 nm, the “Absorption maximum of anthocyanin solution with addition of flavone C-glycoside (λmax)” value ([2]; 0 equivalent isovitexin) is reported as 531.8 nm and the “Absorption maximum of anthocyanin solution with addition of flavone C-glycoside (λmax)” value ([2]; 2 equivalents isovitexin) is reported as 566.4 nm. For the same molecule, the “Absorption maximum of anthocyanin solution with addition of flavone C-glycoside (λmax)” value ([2]; 4 equivalents isovitexin) was 573.0 nm.

In the case of Petunidin 3-glycoside, the “peak detected” value [1] is reported as “no peak was detected in the enzyme reaction solution other than for the substrate”.

With Delphinidin 3-glycoside the “peak detected” value [1] was “no peak was detected in the enzyme reaction solution other than for the substrate”.

For Luteolin 4′-glycoside, the “peak detected” value [1] was “no peak was detected in the enzyme reaction solution other than for the substrate”.

With `O=c1cc(-c2ccc(O)cc2)oc2cc(O)cc(O)c12` [Apigenin] the “peak detected” value [1] was “no peak was detected in the enzyme reaction solution other than for the substrate”.

B1: DN134067: oboushibana-derived flavone 7-O-methyltransferase (SEQ ID NO: 34/35), expressed in E. coli (protein)
chain: MEAQEDNAYMQALELQTGIDMNMTLRAAIELGILETIVGAGEGAKLAAGEISGHLPTANPEAPNMVDRMLRLLAAHNIVTCVVEGGVDGRPECKYGAAPVSKYFTGEGEMSLARKVLLATDMVTFQSWLHLKDSVINGGNAFHTAFNMSLFDKNKVDSRFNNVFNTSMKSVSLFAINKFINTYDGFSDIQVLVDVGGGIGTALYAITSKFPHIKGINFDLPQVISTAQTSYPEMEHVSGDMFASVPKGDAILLKHVLHNWEDESCLKILKTCWNSLPYKGKVIIVESVLPKAPGVSSASKYFTCLDVIMMAHFGAKLRTIEEFKELCNNAGFSSFNATYFHTYHCIMEFTK
modifications: Commelina communis var. hortensis
For B1, the methyl group-transfer activity ([1]; substrate comparison) was “most powerful methyl group-transfer activity for isovitexin”.
